Measurements reported in PubChem BioAssay (NCI).
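Compound exposure: 48 hours, 5 concentrations, 96-well plates. GI50 is the concentration that inhibits growth by half. TGI is the concentration that stops growth completely.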

Tests used:
Experiment in all cases: NCI anticancer screen, dose series, 48 h
NCI-H226 lung = system: NCI-H226 lung
ACHN renal = system: ACHN renal
OVCAR-3 ovarian = system: OVCAR-3 ovarian
MDA-MB-231 breast = system: MDA-MB-231 breast
MOLT-4 leukemia = system: MOLT-4 leukemia
OVCAR-5 ovarian = system: OVCAR-5 ovarian
MALME-3M melanoma = system: MALME-3M melanoma
UO-31 renal = system: UO-31 renal
LOX IMVI melanoma = system: LOX IMVI melanoma
HCT-116 colon = system: HCT-116 colon

| SMILES | TGI (NCI-H226 lung) [µM] | TGI (ACHN renal) [µM] | TGI (OVCAR-3 ovarian) [µM] | TGI (MDA-MB-231 breast) [µM] | TGI (MOLT-4 leukemia) [µM] | TGI (OVCAR-5 ovarian) [µM] | TGI (MALME-3M melanoma) [µM] | TGI (UO-31 renal) [µM] | TGI (LOX IMVI melanoma) [µM] | TGI (HCT-116 colon) [µM] | GI50 (NCI-H226 lung) [µM] | GI50 (ACHN renal) [µM] | GI50 (OVCAR-3 ovarian) [µM] | GI50 (MDA-MB-231 breast) [µM] | GI50 (MOLT-4 leukemia) [µM] | GI50 (OVCAR-5 ovarian) [µM] | GI50 (MALME-3M melanoma) [µM] | GI50 (UO-31 renal) [µM] | GI50 (LOX IMVI melanoma) [µM] | GI50 (HCT-116 colon) [µM] |
| --- | --- | --- | --- | --- | --- | --- | --- | --- | --- | --- | --- | --- | --- | --- | --- | --- | --- | --- | --- | --- |
| COc1ccc(NS(=O)c2ccc(-c3ccccc3)cc2)cc1 (stereo unspecified) | > 100 | > 100 | > 100 | > 100 | > 100 | > 100 | > 100 | > 100 | > 100 | > 100 |  |  |  |  |  |  |  |  |  |  |
| CC1SC(c2ccccc2)N(Nc2c3ccccc3nc3ccccc23)C1=O (stereo unspecified) | > 100 | > 100 | > 100 |  | > 100 | > 100 | > 100 | 82.3 | > 100 | > 100 |  |  |  |  |  |  |  |  |  |  |
| COc1ccc(OC)c([N+](=O)[O-])c1-c1nc2sccn2c1/C=N/N=C(N)N | > 100 | > 100 | > 100 | > 100 | 69.5 | > 100 | > 100 | > 100 | > 100 | > 100 |  |  |  |  |  |  |  |  |  |  |
| COc1cc2cc[n+](C)c(Cc3ccccc3)c2cc1OC | > 100 | > 100 | > 100 |  | > 100 | > 100 | > 100 | > 100 | > 100 | > 100 |  |  |  |  |  |  |  |  |  |  |
| CN1CCN(c2ccc(-c3ccc4ncc(C#N)c(Nc5ccc(F)c(Cl)c5)c4c3)cc2)CC1 | 34.3 | 2.72 | 6.25 | 28.5 | 5.53 | 25.5 | 4.04 | 6.13 | 11.5 |  | 10.2 | 0.491 | 1.72 | 6 | 1.97 | 4.74 | 1.74 | 0.895 | 2.78 |  |
| NCC[Se][Se]CCN | 29.1 | 22.8 | 28.3 | 25.7 | > 100 | 17.6 | 25.2 | 13.3 |  | 15.3 |  |  |  |  |  |  |  |  |  |  |
| COc1ccc(-c2cc(-c3ccccc3)n(C3OCC(OC(C)=O)C(OC(C)=O)C3OC(C)=O)c(=S)c2C#N)cc1 (stereo unspecified) | > 100 | > 100 | > 100 | > 100 | > 100 | > 100 | > 100 | > 100 | > 100 | > 100 |  |  |  |  |  |  |  |  |  |  |
| Cc1nc2ccccc2c(=O)n1-c1n[nH]c2ccccc12 | > 100 | > 100 | > 100 | > 100 | > 100 | > 100 | > 100 | > 100 | > 100 | > 100 |  |  |  |  |  |  |  |  |  |  |
| O=C(N/C(=C\c1ccccc1[N+](=O)[O-])c1nc2ccccc2[nH]1)c1ccccc1 |  |  | > 100 |  | > 100 | > 100 | > 100 | > 100 |  |  |  |  |  |  |  |  |  |  |  |  |
| O=[N+]([O-])c1ccc(N=Nc2c(O)ccc3cc(S(=O)(=O)O)ccc23)cc1 |  | > 100 | > 100 | > 100 | > 100 | > 100 | > 100 | > 100 | > 100 | > 100 |  |  |  |  |  |  |  |  |  |  |
| CCC(CS(=O)(=O)O)[N+](=O)[O-] (stereo unspecified) | > 100 | > 100 | > 100 | > 100 | > 100 | > 100 | > 100 | > 100 | > 100 | > 100 |  |  |  |  |  |  |  |  |  |  |
| O=C(CCCn1c(=O)c2sc3ccccc3c2n2nnc(-c3ccccc3)c12)NCCc1cnc[nH]1 | 37.7 | 3.02 | 3.18 | 3.61 |  |  | 5.49 |  | 2.93 | 1.66 | 18.6 | 1.66 | 1.52 | 1.92 |  |  | 2.49 |  | 1.59 | 0.341 |
| CC(CN(C)C)C(=O)c1ccccc1C(=O)O (stereo unspecified) |  | > 100 | 54.1 | 81.6 | 70.1 | > 100 | 83 | > 100 | > 100 | > 100 |  |  |  |  |  |  |  |  |  |  |
| Cc1nc(Cl)c(Cl)c(Cl)n1 | 6.04 | 1.1 | 0.281 | 0.656 | < 0.025 | 3.03 | 0.573 | 0.208 | 0.585 | 0.24 |  |  |  |  |  |  |  |  |  |  |
| C=C(C)[C@@H]1CC[C@]2(C)CC[C@]3(C)[C@H](CC[C@@H]4[C@@]5(C)CC[C@H](OC(=O)c6ccccc6)C(C)(C)[C@@H]5CC[C@]43C)[C@@H]12 | > 100 | > 100 | > 100 | > 100 | > 100 | > 100 | > 100 | > 100 | > 100 | > 100 |  |  |  |  |  |  |  |  |  |  |
| Cn1c(NN)nc(-c2ccc([N+](=O)[O-])cc2)c(C#N)c1=O | 28.7 | 24.7 | 34.3 | 28.4 |  | 42.9 | 29.7 | 33.8 | 35.2 | 25.4 |  |  |  |  |  |  |  |  |  |  |
| CNC(C)Cc1ccccc1O (stereo unspecified) | > 100 | > 100 | > 100 |  | > 100 | > 100 | > 100 | > 100 | > 100 | > 100 |  |  |  |  |  |  |  |  |  |  |
| Nc1ccc2c(c1)C1=NNC(=O)CC1C2 (stereo unspecified) | > 100 |  | > 31.6 |  | > 100 | > 100 | > 100 | > 100 | > 100 | > 100 |  |  |  |  |  |  |  |  |  |  |
| COc1cc(-c2n/c(=C\c3c(O)[nH]c4ccc(Cl)cc34)cc3c2=Nc2ccccc2-3)cc(OC)c1OC | 12 | 1.65 | 1.53 | 3.12 | 3.64 | 16.9 |  | 2.72 | 1.89 | 0.595 | 3 | 0.449 | 0.417 | 1.47 | 0.679 | 5.15 |  | 1.29 | 0.501 | 0.232 |
